Test system: human hepatocyte cell line L-02
Test: MTT cell proliferation assay
Assay type: cell-based
Conditions: L-02, MTT
Method: Human tumor cell lines Eca-109, BEL-7402, BxPC-3, HCT-116, HT-29, T24, HCT-8, SGC-7901, DLD-1, TE-1, BT-549, MGC-803 and human hepatocyte cell line L-02 were cultured in Roswell Park Memorial Institute (RPMI) 1640. HuH-7 and SW-480 were cultured in Dulbecco’s modified Eagle’s medium (DMEM). J82, HepG2, Hela, U87 were cultured in Minimum Essential Medium (MEM). Murine bladder cancer cell line, MB49, was cultured in DMEM. The above-mentioned culture medium was provided by GIBCO (Grand Island, USA), contained 10% fetal bovine serum (PAN, Germany), 10 mg/mL of streptomycin, and 10 kU/mL penicillin (Beyotime, China).
Cells were seeded in 96-well plates and incubated with indicated concentrations of CHNQD-01281 for indicated periods. Next, medium was discarded and MTT (5 mg/mL) was added to each well. The cells were incubated at 37 °C for another 4 h. After that, supernatant was discarded, and DMSO was added and incubated at 37 °C for 15 min. Finally, absorbance was measured at 570 nm (Molecular Devices, USA).
Thus, the bladder cancer cell lines J82 and T24 were further investigated and treated by CHNQD-01281 under gradient concentrations (0.031−1.00 µmol/L) and times (24, 72 and 120 h) to measure proliferation activities (Fig. 2B). However, the inhibition of T24 or J82 cell lines by CHNQD-01281 was less than 50% even at the highest concentration of 1 µmol/L for 24 h. […] Therefore, CHNQD-01281 has a higher selectivity index compared to BFA.

Compound: C[C@H]1CCC/C=C/[C@@H]2C[C@H](O)C[C@H]2[C@H](OC(=O)/C=C/c2cccnc2)/C=C/C(=O)O1 [CHNQD-01281, Brefeldin A 4-O-3-(pyridin-3-yl) acrylate]
- IC90: 2520 nM
- IC50 (72 h): 1160 nM

Source: PMC11358582, “Discovery of a potential bladder cancer inhibitor CHNQD-01281 by regulating EGFR and promoting infiltration of cytotoxic T cells” (Marine Life Science & Technology, 2024)
